# Experimental data as given in ChEMBL document CHEMBL1139151, “Minor groove binder antibody conjugates employing a water soluble beta-glucuronide linker” (Bioorg Med Chem Lett, 2007).
# pIC50: −log10 of the molar value.
# Key:
# Type in all cases: functional, cell-based
# [1] = Cytotoxicity against CD30 positive L540 Cy cells assessed as cell viability after 96 hrs; conditions: Homo sapiens, L540cy
# [2] = Cytotoxicity against CD30 positive Karpas 299 cells assessed as cell viability after 96 hrs; conditions: Homo sapiens, KARPAS-299, 96 h
# CAKI-1 = experiment: Cytotoxicity against CD70 positive Caki1 cells assessed as cell viability after 96 hrs; conditions: Homo sapiens, CAKI-1, 96 h
# L-428 = experiment: Cytotoxicity against CD30 positive and CD70 negative L428 cells assessed as cell viability after 96 hrs; conditions: Homo sapiens, L-428, 96 h
structure (smiles),measurement,setting,value
COc1ccc(/C=C/C(=O)N2CC(CCl)c3c2cc(N)c2ccccc32)cc1 (centres undefined),pIC50,[1],9.30
same,pIC50,[2],8.92
same,pIC50,CAKI-1,9.15
same,pIC50,L-428,10.00
